US12171768B2, “IRAK4 degraders and uses thereof” (priority 2021, dated 2024)

Assay: Diastereomer interconversion
Format: physicochemical
Settings: in vitro and in vivo

Cn1c(=O)n([C@H]2CCC(=O)NC2=O)c2cccc(C#CCOC3CCN(C[C@H]4CC[C@H](n5cc(NC(=O)c6cnn7ccc(N8C[C@H]9C[C@@H]8CO9)nc67)c(C(F)F)n5)CC4)CC3)c21 [Compound B, 5-((1R,4R)-2-oxa-5-azabicyclo[2.2.1]heptan-5-yl)-N-(3-(difluoromethyl)-1-((1r,4R)-4-((4-((3-(1-((S)-2,6-dioxopiperidin-3-yl)-3-methyl-2-oxo-2,3-dihydro-1H-benzo[d]imidazol-4-yl)prop-2-yn-1-yl)oxy)piperidin-1-yl)methyl)cyclohexyl)-1H-pyrazol-4-yl)pyrazolo[1,5-a]pyrimidine-3-carboxamide]
Diastereomer interconversion: interconvert rapidly

Cn1c(=O)n([C@@H]2CCC(=O)NC2=O)c2cccc(C#CCOC3CCN(C[C@H]4CC[C@H](n5cc(NC(=O)c6cnn7ccc(N8C[C@H]9C[C@@H]8CO9)nc67)c(C(F)F)n5)CC4)CC3)c21 [Compound C, 5-((1R,4R)-2-oxa-5-azabicyclo[2.2.1]heptan-5-yl)-N-(3-(difluoromethyl)-1-((1r,4R)-4-((4-((3-(1-((R)-2,6-dioxopiperidin-3-yl)-3-methyl-2-oxo-2,3-dihydro-1H-benzo[d]imidazol-4-yl)prop-2-yn-1-yl)oxy)piperidin-1-yl)methyl)cyclohexyl)-1H-pyrazol-4-yl)pyrazolo[1,5-a]pyrimidine-3-carboxamide]
Diastereomer interconversion: interconvert rapidly
